From ChEMBL document CHEMBL3872276, “Antiproliferative activity and SARs of caffeic acid esters with mono-substituted phenylethanols moiety” (Bioorg Med Chem Lett, 2017)

Assays:
[1] = cells; conditions: Homo sapiens, HeLa, 48 h
[2] = cells; conditions: Homo sapiens, DU-145, 48 h
[3] = cells; conditions: Homo sapiens, ECa-109, 48 h
[4] = cells; conditions: Homo sapiens, MCF7, 48 h

| SMILES | IC50 [1] | IC50 [2] | IC50 [3] | IC50 [4] |
| --- | --- | --- | --- | --- |
| O=C(/C=C/c1ccc(O)c(O)c1)OCCc1ccc(F)cc1 | 35.8 µM | 12.8 µM | 51.9 µM | 29.9 µM |
| Cc1ccc(CCOC(=O)/C=C/c2ccc(O)c(O)c2)cc1 | 25.8 µM | 36.9 µM | 20.9 µM | 20.6 µM |
| COc1ccc(CCOC(=O)/C=C/c2ccc(O)c(O)c2)cc1 | 67.7 µM | 67.5 µM | 111 µM | 78 µM |
| O=C(/C=C/c1ccc(O)c(O)c1)OCCc1ccc(Br)cc1 | 56.8 µM | 35.4 µM | 40.3 µM | 28.2 µM |
| O=C(/C=C/c1ccc(O)c(O)c1)OCCc1ccccc1O | 29.4 µM | 24.4 µM | 40.2 µM | 21.8 µM |
| CCc1ccccc1CCOC(=O)/C=C/c1ccc(O)c(O)c1 | 4.2 µM | 4.7 µM | 7.3 µM | 8.7 µM |
| Cc1ccccc1CCOC(=O)/C=C/c1ccc(O)c(O)c1 | 2.3 µM | 6.6 µM | 8.2 µM | 2.5 µM |
| CC(C)Oc1ccccc1CCOC(=O)/C=C/c1ccc(O)c(O)c1 | 3.2 µM | 9.1 µM | 15.1 µM | 5.6 µM |
| Cc1cccc(CCOC(=O)/C=C/c2ccc(O)c(O)c2)c1 | 5.4 µM | 21.4 µM | 16.7 µM | 26.3 µM |
| O=C(/C=C/c1ccc(O)c(O)c1)OCCc1ccc(Cl)cc1 | 22.5 µM | 22.1 µM | 28.4 µM | 17.6 µM |
| COc1ccccc1CCOC(=O)/C=C/c1ccc(O)c(O)c1 | 1.6 µM | 2 µM | 5.9 µM | 7.1 µM |
| O=C(/C=C/c1ccc(O)c(O)c1)OCCc1ccccc1 [CAFFEIC ACID PHENETHYL ESTER] | 33 µM | 16 µM | 47.5 µM | 28.8 µM |
| CC(=O)O[C@H]1C(=O)[C@@]2(C)[C@H]([C@H](OC(=O)c3ccccc3)[C@]3(O)C[C@H](OC(=O)[C@H](O)[C@@H](NC(=O)c4ccccc4)c4ccccc4)C(C)=C1C3(C)C)[C@]1(OC(C)=O)CO[C@@H]1C[C@@H]2O [PACLITAXEL] | 0.036 µM | 0.011 µM | 0.94 µM | 0.63 µM |
| O=C(/C=C/c1ccc(O)c(O)c1)OCCc1ccc(O)cc1 [TYROSOL CAFFEATE] | 45.8 µM | 51.9 µM | 49.4 µM | 53.2 µM |
